Our source for the IC50 values is patent US20040127519A1 (Pharmacia Corporation, priority 2002, published 2004).

Structures are written as SMILES.

Sequence of Recombinant MAPKAPK2 (P49137 whole entry, species assumed): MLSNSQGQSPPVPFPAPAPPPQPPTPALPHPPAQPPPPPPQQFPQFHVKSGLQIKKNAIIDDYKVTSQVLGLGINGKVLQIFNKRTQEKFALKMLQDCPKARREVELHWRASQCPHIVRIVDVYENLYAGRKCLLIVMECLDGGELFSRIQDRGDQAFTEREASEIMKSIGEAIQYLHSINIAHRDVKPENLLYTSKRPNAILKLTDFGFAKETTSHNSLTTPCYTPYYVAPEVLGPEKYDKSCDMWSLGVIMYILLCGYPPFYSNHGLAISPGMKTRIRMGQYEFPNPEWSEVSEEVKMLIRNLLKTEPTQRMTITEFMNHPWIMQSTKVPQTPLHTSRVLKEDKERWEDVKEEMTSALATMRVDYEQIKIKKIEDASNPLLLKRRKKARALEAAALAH

One experiment has as its target Recombinant MAPKAPK2 (Homo sapiens, UniProt P49137). The experiment is described as follows: Determination of MK-2 IC50 (HSP-peptide phosphorylation, anion exchange resin capture assay). It counts as biochemical. Conditions: MK-2 Avg. IC50, Table 2, tricyclic aminocyanopyridine MK-2 inhibitors. On the procedure:
The phosphorylation of HSP-peptide ([…]) by MAPKAPK2 was measured using an anion exchange resin capture assay method. […] The reaction was terminated and [γ^33P]ATP was removed from solution by the addition of 150 μl of AG 1×8 ion exchange resin in 900 mM sodium formate pH 3.0. A 50 μl aliquot of head volume was removed from the quenched reaction mixture and added to a 96-well plate, 150 μl of Microscint-40 (Packard) was added and the amount of phosphorylated-peptide was determined. Allow the Microscint to sit in the plates for 60 minutes prior to counting.
Compounds are evaluated as potential inhibitors of the MK2 kinase by measuring their effects on MK2 phosphorylation of the peptide substrate. Compounds may be screened initially at two concentrations prior to determination of IC50 values. Screening results are expressed as percent inhibition at the concentrations of compound tested. For IC50 value determinations, compounds are tested at six concentrations in ten-fold serial dilutions with each concentration tested in triplicate. Results are expressed as IC50 values in micromolar. The assay is performed at a final concentration of 2% DMSO.
As to `Cc1cc(Cl)cc2c1Oc1nc(N)c(C#N)c(N)c1C2` [Example 66], the half-maximal inhibitory concentration (IC50) was 136 µM.

As to `N#Cc1c(N)nc2c(c1N)Cc1ccc(OCC(=O)O)cc1O2` [Example 23], the IC50 is 0.916 µM.

Consider `CCNc1c(C#N)c(N)nc2c1Cc1ccc(OCC)cc1O2` [Example 37], for which the IC50 worked out at 4.76 µM.

In the case of `N#Cc1c(N)nc2c(c1N)Cc1cccc([N+](=O)[O-])c1O2` [Example 32], the concentration for half-maximal inhibition (IC50) was 2.58 µM.

`N#Cc1c(N)nc2c(c1N)Cc1cc([N+](=O)[O-])ccc1S2(=O)=O` [Example 64]: the IC50 was 80.8 µM.

Regarding `N#Cc1c(N)nc2c(c1N)Cc1ccc(OCCN3CCCC3)cc1O2` [Example 25], the concentration for half-maximal inhibition (IC50) amounted to 1.68 µM.

With `N#Cc1c(N)nc2c(c1N)Cc1cccc(F)c1S2` [Example 57], the 50% inhibitory concentration (IC50) is 42.2 µM.

As for `N#Cc1c(N)nc2c(c1N)Cc1cc(Br)ccc1O2` [Example 49], the 50% inhibitory concentration (IC50) was 15.1 µM.

With `C=CCOc1ccc2c(c1)Oc1nc(N)c(C#N)c(N)c1C2` [Example 56], the IC50 is 33.8 µM.

For `COc1ccc(Nc2c(C#N)c(N)nc3c2Cc2cc(OC)c(OC)cc2O3)cc1` [Example 33], the IC50 stood at 2.98 µM.

For `N#Cc1c(N)nc2c(c1N)Cc1ccc(CN3CCCCC3)c(O)c1O2` [Example 42], the IC50 was 8.28 µM.

Turning to `N#Cc1c(N)nc2c(c1N)Cc1cc(N)ccc1S2(=O)=O` [Example 48], the half-maximal inhibitory concentration (IC50) is 14.4 µM.

Consider `CCOCCNc1c(C#N)c(N)nc2c1Cc1ccc(OCCOCC)cc1O2` [Example 44], for which the half-maximal inhibitory concentration (IC50) was determined as 9.66 µM.

Take `COc1cccc2c1Oc1nc(N)c(C#N)c(N)c1C2` [Example 24]: the half-inhibitory concentration (IC50) came to 1.37 µM.

Turning to `CN(C)c1ccc2c(c1)Cc1c(nc(N)c(C#N)c1N)O2` [Example 52], the 50% inhibitory concentration (IC50) was determined as 17.6 µM.

Consider `COc1ccc2c(c1)Oc1nc(N)c(C#N)c(N)c1C2` [Example 34], for which the half-inhibitory concentration (IC50) is 3.24 µM.

In the case of `COc1cc(N)cc2c1Oc1nc(N)c(C#N)c(N)c1C2` [Example 29], the IC50 turned out to be 1.79 µM.

Take `CCOCCOc1cc2c(cc1O)Cc1c(nc(N)c(C#N)c1N)O2` [Example 14]: the half-inhibitory concentration (IC50) was found to be 0.62 µM.

On to `CCCNc1c(C#N)c(N)nc2c1Cc1cc(OC)c(OC)cc1O2` [Example 50], for which the IC50 stood at 15.6 µM.

With `N#Cc1c(N)nc2c(c1N)Cc1ccc(O)c(O)c1O2` [Example 21], the half-maximal inhibitory concentration (IC50) turned out to be 0.857 µM.

As for `COc1ccc2c(c1)Oc1nc(N)c(C#N)c(N)c1C2c1ccccc1F` (stereo not drawn) [Example 69], the IC50 was 151 µM.

As to `N#Cc1c(N)nc2c(c1N)Cc1cc(N)ccc1O2` [Example 12], the IC50 amounted to 0.514 µM.

With `N#Cc1c(N)nc2c(c1N)Cc1ccc(OCCO)cc1O2` [Example 10], the IC50 came to 0.483 µM.

As for `COc1ccc(Nc2c(C#N)c(N)nc3c2Cc2cc(OC)c(OC)cc2O3)cc1` [Example 40], the IC50 was 6.11 µM.

For the molecule `N#Cc1c(N)nc2c(c1N)Cc1cccc(OCCO)c1O2` [Example 70], the 50% inhibitory concentration (IC50) was 154 µM.

With `CC(C)(C)OC(=O)COc1cc2c(cc1OCC(=O)OC(C)(C)C)Oc1nc(N)c(C#N)c(N)c1C2` [Example 45], the IC50 is 10.3 µM.

Still in this experiment, the particulars now being: MK-2 Avg. IC50, Table I, aminocyanopyridine MK-2 inhibitors.
As for `CC(C)(C)NS(=O)(=O)c1ccc(-c2cc(-c3ccco3)c(C#N)c(N)n2)cc1` [Example 64], the 50% inhibitory concentration (IC50) turned out to be 36.4 µM.

In the case of `COc1ccc(Nc2c(C#N)c(N)nc3c2CC(C(F)(F)F)O3)cc1` (stereo not drawn) [Example 63], the IC50 was 36.4 µM.

Consider `N#Cc1c(N)nc2c(c1-c1ccco1)CCc1cc(O)ccc1-2` [Example 10], for which the IC50 amounted to 3.48 µM.

`CCCc1nc(N)c(C#N)c(N)c1C#N` [Example 109]: the IC50 was found to be 99.8 µM.

In the case of `N#Cc1c(-c2ccco2)cc(-c2cccc(B(O)O)c2)nc1N` [Example 124], the IC50 was found to be 126 µM.

Turning to `CSc1cc(N)c(C#N)c(N)n1` [Example 67], the half-maximal inhibitory concentration (IC50) was determined as 41.6 µM.

For `Cn1cnc(-c2cc(-c3ccccc3)nc(N)c2C#N)c1` [Example 28], the half-inhibitory concentration (IC50) turned out to be 7.63 µM.

For `N#Cc1c(N)nc2c(c1-c1ccncc1)CCc1n[nH]cc1-2` [Example 103], the IC50 came to 94.3 µM.

Turning to `N#Cc1c(-c2ccco2)cc(-c2ccsc2)nc1N` [Example 106], the IC50 came to 97.3 µM.

Turning to `CS(=O)(=O)Nc1ccc(-c2cc(-c3ccco3)c(C#N)c(N)n2)cc1` [Example 33], the half-maximal inhibitory concentration (IC50) is 9.27 µM.

As to `N#Cc1c(-c2ccccc2F)cc(-c2ccoc2)nc1N` [Example 49], the IC50 came out at 17.9 µM.

As for `COc1ccnc(N)c1C#N` [Example 91], the IC50 came out at 69.6 µM.

Turning to `N#Cc1c(-c2ccccc2F)cc(-c2ccco2)nc1N1CCCCC1` [Example 143], the IC50 came to 176 µM.

Take `CS(=O)(=O)c1ccc(-c2cc(-c3cnc[nH]3)c(C#N)c(N)n2)cc1` [Example 72]: the IC50 turned out to be 45.3 µM.

In the case of `COc1ccccc1-c1cc(-c2ccc(O)cc2)nc(N)c1C#N` [Example 145], the IC50 came to 183 µM.

On to `N#Cc1c(-c2ccccc2F)cc(-c2ccco2)nc1N` [Example 14], for which the 50% inhibitory concentration (IC50) came to 4.41 µM.

For `N#Cc1c(N)nc2c(c1-c1ccccc1)CCc1n[nH]cc1-2` [Example 7], the IC50 was determined as 2.73 µM.

As for `N#Cc1c(-c2cccc(F)c2)cc(-c2ccc(O)cc2)nc1N` [Example 104], the half-inhibitory concentration (IC50) amounted to 96 µM.

`N#Cc1c(N)nc2c(c1-c1nnc[nH]1)CCc1ccccc1-2` [Example 43]: the IC50 was 13.1 µM.

Consider `N#Cc1c(-c2c[nH]c(C(N)=O)c2)cc(-c2ccco2)nc1N` [Example 6], for which the IC50 is 2.41 µM.

Consider `CC1Cc2n[nH]cc2-c2nc(N)c(C#N)c(-c3ccccc3F)c21` (stereo not drawn) [Example 130], for which the concentration for half-maximal inhibition (IC50) stood at 142 µM.

With `CC(C)(C)NS(=O)(=O)c1ccc(-c2cc(-c3ccccc3F)c(C#N)c(N)n2)cc1` [Example 95], the IC50 was found to be 71.5 µM.

Turning to `CC1Cc2n[nH]cc2-c2nc(N)c(C#N)c(-c3ccco3)c21` (stereo not drawn) [Example 59], the half-maximal inhibitory concentration (IC50) was determined as 31.3 µM.

In the case of `N#Cc1c(-c2ccccc2F)cc(-c2ccc(O)c(O)c2)nc1N` [Example 32], the IC50 was 9.2 µM.

Turning to `Cn1ccc(-c2cc(-c3ccco3)c(C#N)c(N)n2)c1` [Example 60], the 50% inhibitory concentration (IC50) stood at 32.1 µM.

In the case of `N#Cc1c(-c2ccco2)cc(-c2ccc(Cl)c(Cl)c2)nc1N` [Example 135], the concentration for half-maximal inhibition (IC50) was determined as 156 µM.

Consider `COc1ccc(-c2cc(-c3ccccc3F)c(C#N)c(N)n2)cc1` [Example 94], for which the half-inhibitory concentration (IC50) is 70.4 µM.

In the case of `CC(C)OCC1Cc2c(nc(N)c(C#N)c2N)O1` (stereo not drawn) [Example 123], the half-inhibitory concentration (IC50) was determined as 125 µM.

For `N#Cc1c(-c2ccccc2B(O)O)cc(-c2ccco2)nc1N` [Example 108], the IC50 stood at 99.6 µM.

As for `CC1Cc2c(nc(N)c(C#N)c2-c2ccco2)-c2ccccc21` (stereo not drawn) [Example 117], the IC50 came out at 119 µM.

As to `N#Cc1c(-c2ccco2)cc(-c2c[nH]c3ccccc23)nc1N` [Example 119], the IC50 was 120 µM.

On to `N#Cc1c(N)nc2c(c1-c1ccccc1OC(F)F)CCc1[nH]ncc1-2` [Example 105], for which the IC50 came to 96.1 µM.

`CC(C)(C)OCC1Cc2c(nc(N)c(C#N)c2N)O1` (stereo not drawn) [Example 141]: the IC50 stood at 167 µM.

Take `N#Cc1c(-c2ccc(C(F)(F)F)cc2)cc(-c2ccco2)nc1N` [Example 112]: the IC50 was 107 µM.

With `N#Cc1c(-c2ccc(F)cc2)cc(-c2ccco2)nc1N` [Example 140], the IC50 stood at 165 µM.

In the case of `N#Cc1c(-c2ccco2)cc(-c2ccncc2)nc1N` [Example 66], the IC50 worked out at 39.9 µM.

Consider `N#Cc1ccc(-c2ccco2)nc1N` [Example 98], for which the IC50 was 77.5 µM.

For the molecule `Cc1ccc(-c2cc(-c3ccccc3Cl)c(C#N)c(N)n2)o1` [Example 148], the concentration for half-maximal inhibition (IC50) is 192 µM.

As to `N#Cc1c(N)nc2c(c1N)CC(CO)O2` (stereo not drawn) [Example 111], the IC50 is 106 µM.

As for `N#Cc1c(-c2ccco2)cc(-c2ccc(C(=O)O)cc2)nc1N` [Example 16], the IC50 was 4.63 µM.

Regarding `N#Cc1c(-c2ccccc2F)cc(-c2ccco2)nc1Nc1ccccc1` [Example 138], the IC50 was 162 µM.

`CCC1Cc2c(nc(N)c(C#N)c2N)O1` (stereo not drawn) [Example 65]: the 50% inhibitory concentration (IC50) came to 37.9 µM.

On to `N#Cc1c(-c2ccccc2Br)cc(-c2ccco2)nc1N` [Example 53], for which the IC50 came to 26.1 µM.

Consider `COc1ccccc1-c1c(C#N)c(N)nc2c1CCc1n[nH]cc1-2` [Example 129], for which the IC50 turned out to be 136 µM.

Take `COc1ccc(-c2cc(-c3cnc[nH]3)c(C#N)c(N)n2)cc1` [Example 37]: the IC50 amounted to 9.43 µM.

With `N#Cc1c(-c2ccco2)cc(-c2cc[nH]n2)nc1N` [Example 29], the 50% inhibitory concentration (IC50) was found to be 7.72 µM.

With `N#Cc1c(-c2ccccc2F)cc(-c2ccco2)nc1N` [Example 13], the IC50 amounted to 4.06 µM.

In the case of `COc1ccc(-c2cc(-c3cccc(F)c3)c(C#N)c(N)n2)cc1` [Example 107], the IC50 stood at 97.3 µM.

As for `Cn1ncc2c1CCc1c-2nc(N)c(C#N)c1-c1ccco1` [Example 57], the IC50 was determined as 28.3 µM.

As to `N#Cc1c(N)nc2c(c1-c1cccc3c1OCO3)CCc1[nH]ncc1-2` [Example 70], the IC50 was determined as 43.2 µM.

Take `Cn1cnc(-c2cc(-c3ccco3)nc(N)c2C#N)c1` [Example 8]: the 50% inhibitory concentration (IC50) was 2.88 µM.

Consider `N#Cc1c(-c2ccco2)cc(-c2ccc(O)cc2)nc1N` [Example 121], for which the IC50 amounted to 122 µM.

As to `Cn1cccc1-c1cc(-c2ccco2)c(C#N)c(N)n1` [Example 83], the IC50 was determined as 54.4 µM.

Consider `N#Cc1c(N)nc2c(c1-c1ccco1)CCc1c(O)cccc1-2` [Example 101], for which the IC50 was 82.6 µM.

Regarding `N#Cc1c(-c2cnc[nH]2)cc(-c2ccc(C(=O)O)cc2)nc1N` [Example 30], the IC50 is 8.37 µM.
